GI50 and TGI data for 7 compounds are collected here from PubChem BioAssay (NCI).

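Following 48 hours of exposure in 96-well plates, responses at five concentrations were used to interpolate endpoints linearly. GI50: concentration for 50% inhibition of growth. Definition used: TGI = concentration required for complete inhibition of growth.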

Some test systems named below: COLO 205 colon; SK-OV-3 ovarian; CAKI-1 renal; HS 578T breast; SW-620 colon; HCT-116 colon; RPMI-8226 leukemia; CCRF-CEM leukemia; SNB-75 CNS; MALME-3M melanoma.
Common to all, as to assay: growth of human tumour cells (NCI), 48 h

For the compound `C=CC1CC12C(=O)C1OC2(C)C2C(=O)c3c(O)ccc(O)c3C(=O)C12` (centres undefined), the GI50 in the assay with COLO 205 colon was 1.52 µM; with SK-OV-3 ovarian it was 11.9 µM; with CAKI-1 renal, 0.402 µM; in the assay on HS 578T breast, 7.44 µM; with SW-620 colon, 2.32 µM; in the assay with HCT-116 colon it was 4.66 µM. Besides, the GI50 in the assay on RPMI-8226 leukemia was 0.423 µM; in the assay with CCRF-CEM leukemia, 1.3 µM; in the assay with SNB-75 CNS, 6.03 µM; in the assay with MALME-3M melanoma, 1.46 µM. Besides, the TGI came to 17 µM with COLO 205 colon; 41.2 µM with SK-OV-3 ovarian; 1.65 µM in the assay on CAKI-1 renal; 19.3 µM in the assay on HS 578T breast; 5.88 µM with SW-620 colon; 9.03 µM in the assay with HCT-116 colon. The TGI in the assay on CCRF-CEM leukemia came to 16 µM; in the assay on SNB-75 CNS, 15.3 µM; in the assay on MALME-3M melanoma, 4.76 µM.
As for `COc1ccccc1/C=N\N=C(N/N=C/c1ccccc1OC)N/N=C/c1ccccc1OC`, the GI50 is 2.11 µM with COLO 205 colon; 2.68 µM in the assay on SK-OV-3 ovarian; 2.08 µM in the assay with CAKI-1 renal; 2.88 µM in the assay on HS 578T breast; 3.38 µM in the assay on SW-620 colon; 3.04 µM in the assay on HCT-116 colon. Further, the GI50 in the assay with RPMI-8226 leukemia is 2.96 µM; in the assay with CCRF-CEM leukemia, 3.22 µM; in the assay on SNB-75 CNS, 2.72 µM; in the assay with MALME-3M melanoma, 3.73 µM. Moreover, the TGI came out at 4.63 µM with COLO 205 colon; 8.32 µM in the assay on SK-OV-3 ovarian; 6.19 µM in the assay on CAKI-1 renal; 53.2 µM in the assay on HS 578T breast; 13.6 µM with SW-620 colon; 11.3 µM in the assay with HCT-116 colon. For the same compound, the TGI with RPMI-8226 leukemia is 12.3 µM; in the assay on CCRF-CEM leukemia, more than 100 µM; in the assay on SNB-75 CNS, 9.4 µM; in the assay on MALME-3M melanoma, 20.8 µM.
In the case of `CCOC(=O)/C=C/C(C(=O)/C=C/c1ccc(O)c(OC)c1)=C(O)\C=C\c1ccc(O)c(OC)c1`, the GI50 in the assay with COLO 205 colon is 3.14 µM; in the assay with SK-OV-3 ovarian, 8.07 µM; in the assay on CAKI-1 renal, 4.5 µM; in the assay with HS 578T breast, 4.25 µM; in the assay on SW-620 colon it was 3.6 µM; in the assay on HCT-116 colon it was 1.31 µM. In addition, the GI50 with RPMI-8226 leukemia is 2.6 µM; in the assay with CCRF-CEM leukemia it was 3.62 µM; in the assay with SNB-75 CNS, 11.2 µM; with MALME-3M melanoma, 9.93 µM. Also, the TGI in the assay with COLO 205 colon worked out at 12.8 µM; in the assay with SK-OV-3 ovarian, 25.4 µM; with CAKI-1 renal it was 17.5 µM; in the assay on HS 578T breast, 41.7 µM; with SW-620 colon, 24.7 µM; in the assay with HCT-116 colon, 3.24 µM. For the same compound, the TGI was 7.23 µM with RPMI-8226 leukemia, more than 100 µM in the assay on CCRF-CEM leukemia, 28.7 µM with SNB-75 CNS and more than 100 µM in the assay on MALME-3M melanoma.
With `CC(=O)O/N=C1/C(c2c(O)[nH]c3cc(Br)ccc23)=Nc2ccccc21`, the GI50 with COLO 205 colon is 1.57 µM; in the assay with SK-OV-3 ovarian it was 0.421 µM; in the assay with CAKI-1 renal, 0.275 µM; in the assay with HS 578T breast it was 0.0698 µM; in the assay with SW-620 colon, 1.82 µM; with HCT-116 colon it was 1.05 µM. Further, the GI50 was 2.03 µM in the assay on RPMI-8226 leukemia, 1.38 µM with CCRF-CEM leukemia, 0.811 µM in the assay on SNB-75 CNS and 3.48 µM with MALME-3M melanoma. Further, the TGI in the assay on COLO 205 colon stood at 3 µM; in the assay with SK-OV-3 ovarian it was 1.96 µM; in the assay on CAKI-1 renal it was 2.04 µM; in the assay with HS 578T breast it was 1.79 µM; in the assay with SW-620 colon it was 3.46 µM; in the assay with HCT-116 colon it was 2.67 µM. Besides, the TGI in the assay on RPMI-8226 leukemia came to 5.27 µM; with CCRF-CEM leukemia it was 5.37 µM; with SNB-75 CNS it was 5.11 µM; with MALME-3M melanoma, 8.42 µM.
With `O=C(O)c1cc2cc(OCc3ccccc3)c(OCc3ccccc3)cc2[nH]1`, the GI50 in the assay on COLO 205 colon is 19.9 µM; in the assay with SK-OV-3 ovarian, 29.5 µM; with CAKI-1 renal, 20.7 µM; in the assay with HS 578T breast it was 22 µM; with SW-620 colon, 21.8 µM; in the assay with HCT-116 colon, 17.1 µM. The GI50 in the assay on RPMI-8226 leukemia is 23 µM; in the assay on CCRF-CEM leukemia, 33.6 µM; in the assay on SNB-75 CNS it was 17.3 µM; in the assay on MALME-3M melanoma it was 25.9 µM. In addition, the TGI is 36.1 µM with COLO 205 colon; more than 100 µM in the assay on SK-OV-3 ovarian; 51.3 µM in the assay on CAKI-1 renal; 64.5 µM with HS 578T breast; 53.8 µM in the assay with SW-620 colon; 30.8 µM in the assay with HCT-116 colon. Further, the TGI in the assay with RPMI-8226 leukemia is 68.4 µM; with CCRF-CEM leukemia, more than 100 µM; with SNB-75 CNS it was 55.6 µM; with MALME-3M melanoma it was 72.6 µM.
Consider `O=C(Nc1ccc(Cl)cc1)c1cc(-c2ccc(Cl)cc2)c2sc(=O)[nH]c2n1`, for which the GI50 in the assay on COLO 205 colon is 1.63 µM; in the assay with SK-OV-3 ovarian, 2.08 µM; in the assay on CAKI-1 renal, 1.95 µM; with HS 578T breast it was 3.04 µM; in the assay on SW-620 colon, 2.9 µM; in the assay on HCT-116 colon it was 2.4 µM. Moreover, the GI50 was 1.21 µM with RPMI-8226 leukemia, 2.5 µM in the assay with CCRF-CEM leukemia, 1.7 µM in the assay on SNB-75 CNS and 2.31 µM in the assay on MALME-3M melanoma. Further, the TGI with COLO 205 colon is 3.54 µM; in the assay on SK-OV-3 ovarian it was 7.47 µM; in the assay with CAKI-1 renal, 13.1 µM; in the assay on HS 578T breast it was 21.5 µM; in the assay with SW-620 colon it was 15.2 µM; in the assay with HCT-116 colon, 10.8 µM. Besides, the TGI in the assay with RPMI-8226 leukemia came to 14.2 µM; in the assay on CCRF-CEM leukemia, 40.3 µM; in the assay on SNB-75 CNS, 8.03 µM; with MALME-3M melanoma, 6.25 µM.
Take `O=C(Nc1ccccc1O)c1ccc(Oc2cccc(C(=O)Nc3ccccc3O)c2)cc1`: the GI50 with COLO 205 colon was 15.7 µM; with SK-OV-3 ovarian, 4.42 µM; in the assay on CAKI-1 renal, 1.91 µM; in the assay with HS 578T breast, 2.05 µM; in the assay with SW-620 colon it was 3.42 µM; in the assay with HCT-116 colon it was 2.84 µM. Further, the GI50 was 2.84 µM with RPMI-8226 leukemia, 0.409 µM in the assay on CCRF-CEM leukemia, 1.67 µM in the assay on SNB-75 CNS and 1.48 µM in the assay on MALME-3M melanoma. Further, the TGI is 29.9 µM in the assay with COLO 205 colon; 17.2 µM with SK-OV-3 ovarian; 8.86 µM in the assay with CAKI-1 renal; 12.2 µM with HS 578T breast; 12.7 µM with SW-620 colon; 10.4 µM in the assay on HCT-116 colon. Further, the TGI with RPMI-8226 leukemia is 8.78 µM; with CCRF-CEM leukemia it was 9.15 µM; with SNB-75 CNS it was 7.73 µM; with MALME-3M melanoma it was 14 µM.
